Measured values taken from paper PMC10155203 (Molecular Pharmaceutics, 2023).
Several values for one entry are separate records, joined by “and”; a condition that tells them apart may be missing. Identical values can stand only once.

Tests used:
CYP2D6 = conditions: cited from earlier work
[1] = TIM-1 dynamic in vitro gastrointestinal model, bioaccessibility of 75 mg encorafenib capsule; format: in vitro ADME; conditions: for time of maximum bioaccessibility / maximum bioaccessibility / total bioaccessibility (cumulative): TIM-1, 75 mg capsule; for maximum bioaccessibility / total bioaccessibility (cumulative): mean ± SD
Text: To investigate the bioaccessibility under the different test conditions (i.e., in the fasted state, fed state, and with the use of a PPI), a dynamic in vitro GI model TIM-1 (TNO; Zeist, Netherlands) was used, which has previously been described and detailed pictorially.[25],[26] The bioaccessibility of the drug refers to the amount of drug available for drug absorption. The two filters, which are located at the end of the jejunal and ileal compartment, will capture the dissolved fraction of drug as released from the drug formulation with the help of a filtration process. The dissolved fraction of drug is the sum of drug molecules dissolved in the aqueous media (i.e., molecularly dissolved and encapsulated in the colloidal structures such as micelles). The TIM-1 model is a complex in vitro GI simulator that models the dynamic processes and conditions present in the lumen of the gastric and small intestinal regions of the GI tract. The TIM-1 system consists of a stomach, duodenum, jejunum, and ileum compartment. For more information about the setup of the TIM-1 model, the reader is referred to external literature.[27] After dosing the drug product to the stomach compartment, the computer-controlled system controls the transit of the drug formulation to the intestinal compartments at a rate that reflects the in vivo transit conditions observed in fasted, fed, and PPI states. At the end of the jejunal and ileal compartments, a lipid filtration system is installed to separate the dissolved amount of drug from these compartments and evaluate the amount of drug available for drug absorption (i.e., the bioaccessible fraction of drug). The TIM-1 model is programmed to evaluate drug product behavior in fasted, fed, and PPI conditions.[19],[28],[29] Depending on the chosen clinical condition (PPI, fed), specific experimental protocol is executed. Fasted state is simulated by implementing a predefined pH curve controlled by secretion of 1 M HCl into the gastric compartment. The gastric pH starts at pH 3 (including the coadministered glass of water) and will decrease to pH 1.7 as gastric secretion will acidify the gastric content. When the fasted PPI state is simulated, gastric content is adjusted to pH 4.5, and only water is secreted into the stomach compartment to maintain constant pH. During fed state studies, gastric pH starts at pH 6.5 and will decrease to basic fasted conditions (pH 1.7) as the food empties the stomach, and gastric secretion will be activated. Due to secretion and transit, the volumes and pH remain constant in the intestinal compartments. […] For more information about the TIM-1 settings and the determination of bioaccessible fraction, the reader is referred to external literature.[27],[28] The bioaccessible fraction was determined by withdrawing samples from the filtrate (at the end of the jejunum and ileum compartment) and these samples were, subsequently, analyzed by HPLC. The expression of the bioaccessible fraction can be depicted in a cumulative or noncumulative order to observe how much drug will become available as a function of time. […]

For `COC(=O)N[C@@H](C)CNc1nccc(-c2cn(C(C)C)nc2-c2cc(Cl)cc(NS(C)(=O)=O)c2F)n1` [encorafenib, Encorafenib], the “share of metabolism by CYP2D6” value (CYP2D6) is listed as 1%, the “time of maximum bioaccessibility” value ([1]; PPI) is listed as 1.5 h and the maximum bioaccessibility ([1]; PPI) is listed as 18% and 18 ± 4%. The “total bioaccessibility (cumulative)” value ([1]; PPI) was 83% and 83 ± 6%, the “time of maximum bioaccessibility” value ([1]; fasted) was 1.5 h and the maximum bioaccessibility ([1]; fasted) was 16% and 16 ± 4%. For the same molecule, the “total bioaccessibility (cumulative)” value ([1]; fasted) was 77% and 77 ± 4%, the “time of maximum bioaccessibility” value ([1]; fed) was 4 h and the maximum bioaccessibility ([1]; fed) was 13% and 13 ± 0%. The “total bioaccessibility (cumulative)” value ([1]; fed) was 80% and 80 ± 1% and the bioaccessible fraction ([1]; TIM-1, in the 3 conditions (fasted, fed, PPI)) was at least 80%.
